Laboratory results as given in patent US20220242905A1, “MODIFIED PEPTIDES AND THEIR USE” (UNIVERSITE DE MONTPELLIER, priority 2018, published 2022).
≈ marks a conversion by molar mass, not a printed value. Like-named read-outs stand apart in the source and are kept apart here.

Key:
[1] = test system: Enterococcus faecalis ATCC29121; format: cell-based; conditions: for Minimal inhibitory concentration (MIC) E. faecalis ATCC29121: ATCC29121, 24 h
Procedure: (§1) Minimal inhibitory concentration (MIC) values and minimal bactericidal concentration (MBCs) values for ATC-peptides 1-9 were determined against both Gram-positive (Bacillus subtilis, Staphylococcus aureus, Enterococcus faecalis) and Gram negative (Escherichia coli, Pseudomonas aeruginosa) bacteria as well as a yeast (Candida albicans). Experiments were conducted in triplicate. For B. subtilis, compounds were tested against vegetative cells and spores, which are particularly resistant to the action of antimicrobial agents. MIC and MBCs values are shown Table 12. In addition, haemolytic properties of 1-9 were tested.
(§2) the antimicrobial performances of oligomers antimicrobial activity were determined on three Gram positive strains (Bacillus subtilis ATCC6633, Staphylococcus aureus ATCC6538 and Enterococcus faecalis ATCC29121), two Gram negative strains (Escherichia coli ATCC8739 and Pseudomonas aeruginosa ATCC9027) and one fungal strain (Candida albicans ATCC10231). Each bacterial strain was allowed to grow overnight on Trypto-Caseine-Soja agar (TSA, Difco) at 37° C., C. albicans was allowed to grow 48 h on a sabouraud medium (Difco) at 20-25° C. A fresh suspension at 10^8 CFU·mL^−1 was then prepared by inoculating the micro-organisms in a Tryptone-Sel solution. Concentration was monitored by measuring transmitted light at 620 nm or with the Mac Farland turbidity standard (Mac Farland=0.5≈10^8 CFU·mL^−1). Each suspension was then diluted in a doubly strong Mueller-Hinton (MH, Difco) broth to […]. Two-fold serial dilutions (100 μL) of oligomers in sterile water (pH adjusted between 7.4 and 7.7 with HCl and NaOH solutions) were mixed with microbial inoculum (100 μL) in NUNC sterile clear polystyrene flat-bottom 96-well plates. A 1/1 v/v oligomer solution/water mixture was used a negative control and a 1/1 vv water/microbial inoculum mixture was used a positive control. Plates were then incubated 24 h at 37° C. for bacteria and 48 h at 25° C. for C. albicans. Minimum Inhibitory Concentration (MIC) was determined as the lowest concentration inhibiting the growth of each micro-organism. […] Minimum Bactericidal Concentration (MBC) was determined as the lowest concentration that prevent the growth of more than one colony. Each assay was performed in a triple duplicate for each strain.

[2] = test system: Candida albicans ATCC10231; format: cell-based; conditions: for Minimal inhibitory concentration (MIC) C. albicans ATCC10231: ATCC10231, 48 h
Procedure: as §1, §2

[3] = test system: Bacillus subtilis ATCC6633; format: cell-based; conditions: for Minimal inhibitory concentration (MIC) B. subtilis ATCC6633: ATCC6633, 24 h
Procedure: as §1, §2

[4] = test system: Pseudomonas aeruginosa ATCC9027; format: cell-based; conditions: for Minimal inhibitory concentration (MIC) P. aeruginosa ATCC9027: ATCC9027, 24 h
Procedure: as §1, §2

[5] = test system: Staphylococcus aureus ATCC6538; format: cell-based; conditions: for Minimal inhibitory concentration (MIC) S. aureus ATCC6538: ATCC6538, 24 h
Procedure: as §1, §2

[6] = test system: Escherichia coli ATCC8739; format: cell-based; conditions: for Minimal inhibitory concentration (MIC) E. coli ATCC8739: ATCC8739, 24 h
Procedure: as §1, §2

[7] = test system: Human red blood cells (hRBCs); test: Hemolytic activity; format: cell-based; conditions: 1 h at 37° C., printed in the HD50 column
Procedure: (§3) Procedure for measurements of hemolytic activity: Human red blood cells (hRBCs) were washed multiple times with phosphate-buffered saline (PBS) until a clear supernatant was obtained. The hRBCs suspension was made in PBS with a Packed Cell Volume of 5%, Two-fold serial dilutions (50 μL) of oligomers in sterile water (pH adjusted between 7.4 and 7.7 with HCl and NaOH solutions) were mixed with hRBCs suspension (50 μL) in clear polystyrene optical-bottom 96-well plates which were filmed and incubated for 1 h at 37° C. A 1/1 vv hRBCs solution/PBS mixture was used a negative control and a 1/1 vv hRBCs solution/1% (TRIS 50 mM pH=8.0+1% SDS) mixture was used a positive control for 100% hemolysis. The mixture was then centrifuged at 1500 g for 10 min at 5° C. Next, 50 μL of the supernatant was transferred into a second plate, and the absorbance was read at 490 nm using a BioRad iMark plate reader. The hemolysis percentage was calculated by the formula % hemolysis=[Absorbance (sample)−Absorbance (negative control)]/[Absorbance (positive control)−Absorbance (negative control)]×100%. Each assay was performed in a double duplicate. Hemolytic activity was determined or estimated with the Hemolytic Concentration leading to 50% of lysis of hRBCs (HC50).

E. coli [8] = format: cell-based, Escherichia coli; conditions: 2 h
Procedure: FIG. 17 represents a graphic showing the results of a time-kill study of oligomer 9 on E. coli over 2 h incubation at 37° C.
(§4) Surface electron microscopy (SEM) experiments: oligomer 9 was evaluated for its impact on E. coli morphology by surface electron microscopy (SEM). In order to define the best incubation period to observed antimicrobial effects, time-kill study was conducted over 2 h incubation at 37° C. […] Significant decrease of the growth rate was observed between 40 to 60 min at 4× and 8×MIC. TEM experiments were performed after 60 min contact between bacteria cells and compound 9. […] In addition, whereas there were no fragments for control untreated bacteria, numerous spherical elements whose diameters were lower than 0.1 μm were observed around bacteria, the number of which increasing with the peptide concentration. Despite some dispersion in size, such fragments, probable microsomes, were classically reported with other AMPs associated with membrane permeation and/or depolarization. [M. Hartmann, M. Berditsch J. Hawecker, F. Ardakani, D. Gerthsen, A. S. Ulrich, Antimicrob. Agents Chemother. 2010, 54, 3132-3142 b/ E. Duval, C, Zatylny, M. Laurencin, M. Baudy-Floc'h, J. Henry, Peptides 2009, 30, 1608-1612.]

E. coli [9] = test: Surface electron microscopy (SEM) of bacterial morphology; format: cell-based, Escherichia coli; conditions: after 60 min incubation with 8×MIC; untreated about 2.0 μm
Procedure: FIG. 18 represents electronic microscopy photos. A/, B/ and C/ SEM micrographs untreated E. coli on glass platelets. In isotonic medium the cells are long, intact and evenly shaped.
FIG. 19 represents SEM micrographs untreated E. coli after 60 min incubation with 8×MIC of 9.
as §4, with “1608-1612.] […]” for “1608-1612.]”

Hemolytic activity = format: cell-based, Human; conditions: human, human red blood cell suspension; hRBCs, 1 h at 37° C.; read-out: HD50, dose required to lyse 50% of the red blood cells
Procedure: as §3

[10] = value in bracket, 24 h at 37° C.

Minimal inhibitory concentration (MIC) E. faecalis ATCC29121 [1] [µM] | Minimal inhibitory concentration (MIC) C. albicans ATCC10231 [2] [µM] | Minimal inhibitory concentration (MIC) B. subtilis ATCC6633 [3] [µM] | Minimal inhibitory concentration (MIC) P. aeruginosa ATCC9027 [4] [µM] | Minimal inhibitory concentration (MIC) S. aureus ATCC6538 [5] [µM] | Minimal inhibitory concentration (MIC) E. coli ATCC8739 [6] [µM] | SMILES | HD10 [7] [µM] | average log reduction of the viable cell count (E. coli [8]) [log10 cfu/ml] | average log reduction of the viable cell count (E. coli [8]; 8) [log10 cfu/ml] | length of E. coli cells (E. coli [9]) [μm] | Minimal bactericidal concentration (MBC) E. faecalis ATCC29121 [1, 10] | Minimal bactericidal concentration (MBC) C. albicans ATCC10231 ([2]; value in bracket, 48 h at 25° C.) | Minimal bactericidal concentration (MBC) B. subtilis ATCC6633 [3, 10] | Minimal bactericidal concentration (MBC) P. aeruginosa ATCC9027 [4, 10] | Minimal bactericidal concentration (MBC) S. aureus ATCC6538 [5, 10] | Minimal bactericidal concentration (MBC) E. coli ATCC8739 [6, 10] | HC50 at 1 h (Hemolytic activity) [µM]
>150 | 50 (≈ 127 µg/mL) | 0.8 (≈ 2.03 µg/mL) | 100 (≈ 253 µg/mL) | 100 (≈ 253 µg/mL) | 5.2 (≈ 13.2 µg/mL) | CC(=O)N[C@@H](CCCCN)c1nc(C)sc1C(=O)N[C@@H](C)c1nc(C)sc1C(=O)N[C@@H](C)c1nc(CCCCN)sc1C(=O)N[C@@H](C)c1nc(C)sc1C(=O)N[C@@H](C)c1nc(CCCCN)sc1C(=O)N[C@@H](CCCCN)c1nc(C)sc1C(=O)N[C@@H](C)c1nc(CCCCN)sc1C(=O)N[C@@H](CCCCN)c1nc(C)sc1C(=O)N[C@@H](C)c1nc(C)sc1C(=O)N[C@@H](C)c1nc(C)sc1C(=O)N[C@@H](C)c1nc(CCCCN)sc1C(=O)N[C@@H](CCCCN)c1nc(C)sc1C(N)=O [Oligomer 5] | 62.5 |  |  |  |  |  |  |  |  |  | 
20.8 (≈ 57.4 µg/mL) | 6.2 (≈ 17.1 µg/mL) | 0.6 (≈ 1.66 µg/mL) | 4.2 (≈ 11.6 µg/mL) | 3.1 (≈ 8.55 µg/mL) | 1.8 (≈ 4.97 µg/mL) | CC(=O)N[C@@H](CCCNC(=N)N)c1nc(C)sc1C(=O)N[C@@H](C)c1nc(CCCNC(=N)N)sc1C(=O)N[C@@H](C)c1nc(C)sc1C(=O)N[C@@H](CCCNC(=N)N)c1nc(C)sc1C(=O)N[C@@H](C)c1nc(CCCNC(=N)N)sc1C(=O)N[C@@H](C)c1nc(C)sc1C(=O)N[C@@H](CCCNC(=N)N)c1nc(C)sc1C(=O)N[C@@H](C)c1nc(CCCNC(=N)N)sc1C(=O)N[C@@H](C)c1nc(C)sc1C(=O)N[C@@H](CCCNC(=N)N)c1nc(C)sc1C(=O)N[C@@H](C)c1nc(CCCNC(=N)N)sc1C(=O)N[C@@H](C)c1nc(C)sc1C(N)=O [Oligomer 9] |  | 0.95 | 4.73 | ≥ 1.3 | (25) μM | (6.2) μM | (0.8) μM | (4.7) μM | (7.8) μM | (2.3) μM | > 100
